PMC11763059, “GENI as an AMPK Activator Binds α and γ Subunits and Improves the Memory Dysfunction of Alzheimer’s Disease Mouse Models via Autophagy and Neuroprotection” (Antioxidants, 2025)

Assays:
[1] = test system: AMPK/mTOR/ULK1/LC3B signaling pathway; assay: Western blot of autophagy signaling pathway proteins; type: cell-based; conditions: after giving GENI; PC12 cells and mouse hippocampus and cerebral cortex (Extended Data Figure S3a–f)
Procedure: Western blot analysis for p-AMPK α, AMPK α, p-mTOR, mTOR, p-ULK1, ULK1, and LC3-I/II was conducted according to the information described in the materials and methods section of Supplementary Information.
1.3. Western blot analysis.
For PC12 cell samples, we seeded 2 × 10^6 PC12 cells in each 60 mm dish containing 5 mL of DMEM and incubated the dish for 24 h. For the dose-dependent experiment of GENI, GENI (1, 3 and 10 μM) was added to the dishes and incubated for a period of time (2 hours for p-AMPK α, AMPK α, 48 hours for p-mTOR, mTOR and p-ULK1, ULK1; 8 hours for LC3-I/II). Cells were then collected, lysed using RAPI lysis buffer and centrifuged. The supernatants of each group were used as protein samples. […]
The supernatants of each group were used as protein samples. For animal samples, an appropriate amount of tissue, such as cerebral cortex and hippocampus (50–100 mg), of each group was weighed, and we added lysis buffer with 1:9 ratios. After grinding and centrifuging, the supernatants of each group were used as protein samples. The protein concentration was measured with a BCA assay kit (Beijing Cowin Biotech Company, Beijing, China). Sodium dodecyl sulphate polyacrylamide gel electrophoresis (SDS-PAGE) was used to separate proteins (15 μg), which were transferred to PVDF membranes. The membrane was incubated with primary and secondary antibodies (Supplementary Table S5 for details). Antigens were visualised using a high-sensitivity chemiluminescence detection kit (Beijing Cowin Biotech Company, Beijing, China). Bands were quantitatively measured using ImageJ software (National Institutes of Health, Bethesda, MD, USA).

AMPK = assay: Cellular thermal shift assay (CETSA) in PC12 cells, AMPK; type: binding; conditions: 10 μM GENI 2 h, 60 °C to 80 °C
Procedure: (§1) In a 60 mm dish containing 5 mL of DMEM, 2 × 10^6 cells were added and incubated for 24 h. In each plate, 10 μM GENI was added and incubated for 2 h. Cells were harvested and heated at a temperature ranging from 60 °C to 80 °C for PC12 cell samples. We obtained a certain amount of cerebral cortex and hippocampus samples, which were added with PBS and ground. After centrifugation, the supernatant was used as a sample, and we measured the protein concentration with a BCA kit (CoWin Biotech Co., Ltd., Taizhou, Jiangsu, China). The protein of the cerebral cortex or hippocampus was incubated with 10 μM GENI at 37 °C for 2 h and heated from 65 °C to 100 °C for the cerebral cortex sample but 43 °C to 67 °C and 65 °C to 100 °C for the hippocampus sample. Equal volumes of supernatant heated at each temperature point for the control and treatment groups were used for Western blot analysis with the antibody for specific proteins.

MAPK = assay: Cellular thermal shift assay (CETSA) in PC12 cells, MAPK; type: binding; conditions: 10 μM GENI 2 h, 60 °C to 80 °C
Procedure: as §1

BV-2 cells = assay: IL-6 ELISA and NO assay in BV-2 cell culture supernatant; type: cell-based, murine; conditions: LPS 1 μg/mL
Procedure: ELISA analysis for NO and interleukin-6 (IL-6) was performed according to the manufacturer described in the material and methods section in Supplementary Information. […]
for 15 seconds, 68 ℃ for 20 seconds. All results were normalized to GAPDH RNA levels, and relative mRNA transcript levels were calculated using the ΔΔCt formula.
1.2. Enzyme-linked immunosorbent assay
BV-2 cells were treated with LPS (1 μg/mL) in the absence or presence of GENI (1, 3 and 10 μM). The cell supernatant was collected at different time points for proinflammatory mediator assay (8 h for IL-6 and 24 h for NO). NO production was quantified using an NO assay kit (S0021S, Beyotime, China), and IL-6 was detected using commercial ELISA kits (EM004, ExCell, China) according to the manufacturer’s instructions.
For NO content evaluation, firstly, the NO assay kit was removed, and Griess Reagents I and II were warmed to room temperature. The standard substance was diluted with cell culture solution to 0, 1, 2, 5, 10, 20, 40, 60 and 100 μM. […] The absorbance was determined with a microplate reader (BioTek, California, USA) at 540 nm. […]
15.625 and 0 pg/mL for use, and blank holes were set. […] About 100 μL of termination solution was added to each hole, and we measured the OD450 value immediately after mixing with a microplate reader (BioTek, California, USA).

[2] = mouse, in vivo
Excerpt: Each group comprised 10 mice. […] Dosing lasted for 10 weeks. […] The mice were sacrificed after 10 weeks of administration.
At the end of the animal experiment, the epididymis fat, heart, liver, spleen, and kidney of the mice were removed for weighing analysis.

CC(C)CCOC(=O)C1=CO[C@@H](O[C@@H]2O[C@H](CO)[C@@H](O)[C@H](O)[C@H]2O)C2C(CO)=CCC12 (stereo partly drawn) [GENI, Geniposidic 4-isoamyl ester]
LC3B at protein level [1]: increase
phosphorylate-AMPK at protein level [1]: increase
phosphorylate-ULK1 at protein level [1]: increase
phosphorylate-mTOR at protein level [1]: reduction
thermal stability of AMPK (CETSA) (AMPK): sensibly increase the thermal stability
thermal stability of MAPK (CETSA) (MAPK): not obvious
secretion of LPS-stimulated pro-inflammatory IL-6 (BV-2 cells; 8 h): significantly reduced
production of NO (BV-2 cells; 24 h): significantly reduced
myocardial hypertrophy and toxic side effects [2]: did not find
